Assay results published in article PMC11802874, “The hypolipidemic effect of MI-883, the combined CAR agonist/ PXR antagonist, in diet-induced hypercholesterolemia model” (Nature Communications, 2025).
“And” between values parts separate entries of the source, which are not always exact repeats. Identical values can stand only once.

Tests used:
[1] = target: aryl hydrocarbon receptor (AhR) (Homo sapiens, UniProt P35869); assay: Luciferase reporter gene assay AhR (p1A1-luc), HepG2
Description: (§1) The luciferase reporter gene assays for FXR, LXRα, LXRβ, THα, GRα, PPARα, PPARδ/β, PPARγ, AhR, VD, ERα, ERβ and mouse Car are described in our recent paper[19]
(§2) Gal4-LBD constructs of tested nuclear receptors have been used together with pGL4.31[luc2P/GAL4UAS/Hygro] luciferase reporter construct and pRL-TK Renilla expression vector (both from Promega, Hercules, USA) in HepG2 cells transfected with Lipofectamine 2000 or 3000 reagents. For GRα and FXR receptors, full-length expression vectors have been used with pGRE-luc or pFXRE-luc luciferase constructs. For the aryl hydrocarbon receptor (AhR), p1A1-luc construct was used with only pRL-TK vector for transfection normalization. A dual reporter assay (Promega, Hercules, USA) was used to analyze both firefly and Renilla luciferase activities.
(§3) Gal4-LBD constructs of tested nuclear receptors have been used together with pGL5-luc luciferase reporter construct and pRL-TK Renilla expression vector in HepG2 cells transfected with Lipofectamine 2000 or 3000 reagents. For GRα and FXR receptors, full-length expression vectors have been used with pGRE-luc or pFXRE-luc luciferase constructs. For the aryl hydrocarbon receptor (AhR), p1A1-luc construct was used with only pRL-TK vector for transfection normalization. […] Bars represent means±S.D. (n=3).

human PXR LBD = target: T1, human PXR LBD (Homo sapiens, UniProt O75469); assay: PXR LBD assembly assay in HepG2 cells; type: cell-based
T1 construct: helix 1 part of the LBD of PXR (residues 132–188); helices 2-12 of the PXR-LBD (residues 189-434); expressed in transfected cells; host or cells: HepG2
Description: A human PXR LBD assembly assay (Fig. 1k) was done with expression plasmids encoding fusion protein of GAL4-DNA binding domain (DBD) and helix 1 part of the LBD of PXR (residues 132–188) and fusion protein of VP16 activation domain (AD) and helices 2-12 of the PXR-LBD (residues 189-434), respectively, which have all been described previously. Metridia luciferase expression plasmid pMetLuc2control was obtained by Takara-Clontech (Mountain View, CA, USA). Transient batch transfection of HepG2 cells was done in 96-well plates using Jet-PEI transfection reagent (Polyplus, Illkirch, France), as described previously. The following amounts of plasmid DNA per well were used: 0.24 µg pGL4-G5 and 0.03 µg each of expression plasmids encoding GAL4-DBD/PXR(132-188) and VP16-AD/PXR(189-434). All transfections included 0.01 µg pMetLuc2control per well for normalization of firefly luciferase reporter activities. After overnight incubation with the transfection mixtures, cells were treated with chemicals in a volume of 100 µl of cell culture medium. […] Firefly luciferase activity was measured in 10 µl of cell lysates, and Metridia luciferase activity was analyzed in 10 µl of medium supernatant, both as described before. Results were normalized by dividing firefly luciferase activity by Metridia luciferase activity measured from the same well.

LXRβ = LXRβ (Homo sapiens, UniProt P55055); assay: Luciferase reporter gene assay LXRβ, HepG2
Description: as §2, §3

mouse Car = mouse Car (Mus musculus, UniProt O35627); assay: Luciferase reporter gene assay mouse Car, HepG2
Description: as §1
The mouse Car expression vector pCMV6-mCar (NM_009803) was obtained from OriGene Technologies, Rockville, MD, USA).
as §2, §3

[2] = system: humanized PXR-CAR-CYP3A4/3A7 mice fed HFD; assay: High-fat diet (HFD) study: weights, food intake, plasma biochemistry, histology; type: in vivo, mouse; set-up: BW (Fig 4b) / LW (Fig 4b) / LDL (Fig. 4e) / HDL (Fig. 4e) / TG (Fig. 4e) / Chol (Fig. 4e) / Glu (Fig. 4e) / food intake (Fig 4c) / AST / ALT / ALB / ALP / LDH / Urea / Uric acid / Fe / Bilirubin / CREZ / BW: unit not given here; conditions: for BW: FigS12c, group mean
Description: For experiment involving a HFD in the model of diet-induced metabolic syndrome and type 2 diabetes with hypercholesterolemia, both male and female mice at the age of 10–15 weeks were pretreated for 8 weeks with HFD (E15186 EF R/M with 30% fat, ssniff ®, Soest, Germany) containing 30.1% crude fat, 20.8% protein and 171 mg/kg of cholesterol, ad libitum (Fig. 4a). Mice were then randomly assigned to MI-883 or control groups (17 male animals per group for the control or MI-883-treated group, 15 female animals per group for control and MI-883 treated groups, respectively). They were administered via oral gavage with either MI-883 treatment (5 mg/kg, 3x per week on Mo, We, Fri) or vehicle (5%DMSO/5%PEG300/90%corn oil) while still fed with HFD. Mice were sacrificed after 4 weeks of treatment.
Mice were weighted and tissues (livers, blood, duodenum, jejunum, ileum, white fat) were removed, weighted and snap frozen in liquid nitrogen and stored at –80 °C until analysis. Blood was collected from the retro-orbital sinus of mice under isoflurane anesthesia into heparin-coated tubes (Kabe Laboratortechnik GmbH, Nümbrecht-Elsenroth, Germany) after 3 h fasting and analyzed on AU480 biochemistry analyzer (Beckman Coulter, Brea, USA). Sample preparation for bile acid and cholesterol analyses from tissues or feces is described below. One of the liver lobes was fixed in formalin, embedded in paraffin blocks, sectioned, and subjected to H&E staining. Blood was analyzed as described in Supplementary, Chapter 10.
Blood was collected from the retro-orbital sinus of mice under isoflurane anesthesia into heparin-coated tubes (Kabe Laboratortechnik GmbH, Nümbrecht-Elsenroth, Germany) after 3 hours of fasting. Blood was left for 10 minutes at room temperature, and then kept on ice until centrifugation (5,000 g at 4°C for 10 minutes). The collected plasma was stored at -80 °C until measurement. Lipoprotein levels and other plasmatic parameters were measured on an AU480 biochemistry analyzer (Beckman Coulter, Brea, USA).

[3] = HFD and HCD studies (Fig. 4e, h)
[4] = HFD, MI883 HFD, individual animals
[5] = chow / vehicle / MI-883, individual animals
[6] = individual animals, MI-883 vs vehicle
[7] = normal diet, individual animals

Sequence of LXRβ (P55055 222-460 limits assumed): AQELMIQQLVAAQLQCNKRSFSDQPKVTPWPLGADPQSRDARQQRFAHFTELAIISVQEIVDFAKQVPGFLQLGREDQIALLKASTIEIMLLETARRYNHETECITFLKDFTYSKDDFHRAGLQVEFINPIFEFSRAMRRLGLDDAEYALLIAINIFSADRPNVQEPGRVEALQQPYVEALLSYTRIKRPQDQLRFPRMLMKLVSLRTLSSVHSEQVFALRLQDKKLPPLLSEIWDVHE
Sequence of mouse Car (O35627 whole entry): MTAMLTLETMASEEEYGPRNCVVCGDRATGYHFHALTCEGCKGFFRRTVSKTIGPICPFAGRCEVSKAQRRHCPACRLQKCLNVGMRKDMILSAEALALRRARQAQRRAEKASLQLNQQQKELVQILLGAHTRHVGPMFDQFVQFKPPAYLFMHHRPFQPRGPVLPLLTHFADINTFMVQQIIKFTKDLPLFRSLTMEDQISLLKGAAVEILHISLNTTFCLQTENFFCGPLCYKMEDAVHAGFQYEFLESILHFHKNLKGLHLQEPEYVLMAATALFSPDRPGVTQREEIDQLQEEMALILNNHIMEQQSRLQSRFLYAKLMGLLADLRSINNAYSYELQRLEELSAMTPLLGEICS
Sequence of aryl hydrocarbon receptor (AhR) (P35869 11-848): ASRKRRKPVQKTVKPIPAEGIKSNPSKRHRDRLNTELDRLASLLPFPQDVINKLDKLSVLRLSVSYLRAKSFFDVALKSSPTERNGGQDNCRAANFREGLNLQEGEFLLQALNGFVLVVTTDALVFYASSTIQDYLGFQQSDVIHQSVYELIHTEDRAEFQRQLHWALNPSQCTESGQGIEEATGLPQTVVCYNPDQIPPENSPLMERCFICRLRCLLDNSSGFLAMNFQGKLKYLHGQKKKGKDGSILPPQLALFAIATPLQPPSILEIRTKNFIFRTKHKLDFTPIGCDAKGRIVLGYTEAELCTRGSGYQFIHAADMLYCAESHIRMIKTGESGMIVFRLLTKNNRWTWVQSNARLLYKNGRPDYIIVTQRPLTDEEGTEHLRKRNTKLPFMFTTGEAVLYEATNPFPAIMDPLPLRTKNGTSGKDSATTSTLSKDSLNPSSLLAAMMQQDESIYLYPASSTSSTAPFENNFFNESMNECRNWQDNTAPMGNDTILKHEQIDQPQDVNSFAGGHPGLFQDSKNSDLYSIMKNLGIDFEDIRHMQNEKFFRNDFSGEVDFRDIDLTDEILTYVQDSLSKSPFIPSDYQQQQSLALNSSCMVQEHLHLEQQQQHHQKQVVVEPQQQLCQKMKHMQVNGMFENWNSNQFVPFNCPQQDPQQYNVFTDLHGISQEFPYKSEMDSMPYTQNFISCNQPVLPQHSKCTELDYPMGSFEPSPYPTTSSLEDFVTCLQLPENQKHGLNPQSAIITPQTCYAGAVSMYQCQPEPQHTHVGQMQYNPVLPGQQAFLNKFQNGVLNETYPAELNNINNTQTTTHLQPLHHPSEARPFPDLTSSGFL
T1 sequence (O75469 132-188): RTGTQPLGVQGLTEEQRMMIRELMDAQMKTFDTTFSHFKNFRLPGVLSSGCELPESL
T1 sequence (O75469 189-434): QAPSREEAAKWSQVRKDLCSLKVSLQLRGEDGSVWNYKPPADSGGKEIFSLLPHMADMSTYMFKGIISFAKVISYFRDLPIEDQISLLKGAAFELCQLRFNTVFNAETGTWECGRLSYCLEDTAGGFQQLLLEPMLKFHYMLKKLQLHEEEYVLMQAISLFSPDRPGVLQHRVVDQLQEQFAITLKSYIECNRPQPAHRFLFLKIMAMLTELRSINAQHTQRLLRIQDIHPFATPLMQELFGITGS

Compound: NC(=O)c1cc(Cn2cc(-c3c(-c4ccc(Cl)cc4)nc4cc(F)ccn34)nn2)ccc1Cl [MI-883, 2-chloro-5-((4-(2-(4-chlorophenyl)-7-fluoroimidazo[1,2-a]pyridin-3-yl)-1H-1,2,3-triazol-1-yl)methyl)benzamide]
- NRs assays: AhR (relative to ctrl, replicates) [1]: 0.69 and 0.85 and 0.64
- PXR LBD assembly (human PXR LBD): stimulates
- NRs assays: LXRbeta (relative to ctrl, replicates) (LXRβ): 0.51 and 0.81 and 0.55
- NRs assays: mCar (relative to ctrl, replicates) (mouse Car): 1.15 and 1.36 and 1.11
- BW ([2]; time point 0): 100
- BW ([2]; time point 3): 99.94
- BW ([2]; time point 4): 99.69
- BW ([2]; time point 7): 98.81
- BW ([2]; time point 8): 98.7
- BW ([2]; time point 9): 99.01
- BW ([2]; time point 11): 97.62
- BW ([2]; time point 14): 97.62
- BW ([2]; time point 16): 98.66
- BW ([2]; time point 18): 95.35
- BW ([2]; time point 21): 95.54
- BW ([2]; time point 25): 95.05
- hepatic histology, morphology, steatosis with ballooning cells ([2]; H&E staining): did not observe affected hepatic histology, morphology, and steatosis
- plasma HDL cholesterol concentrations in males ([2]; HFD and HCD studies): decrease
- plasma LDL cholesterol levels [2, 3]: systematic decrease
- total plasma cholesterol concentration [2, 3]: systematic decrease
- ALB ([2]; HFD female, individual animals): 24.33 and 24.2 and 23.24 and 26.55 and 24.9
- ALP ([2]; HFD female, individual animals): 113 and 92 and 67 and 82 and 103 and 98 and 123 and 110 and 111 and 88 and 70 and 60 and 74 and 94 and 83 and 97
- ALT ([2]; HFD female, individual animals): 22 and 33 and 42 and 31 and 44 and 26 and 25 and 20 and 30 and 27
- AST ([2]; HFD female, individual animals): 36 and 56 and 60 and 42 and 80 and 46 and 43 and 45 and 48 and 52
- Bilirubin ([2]; HFD female, individual animals): 1.91 and 1.99 and 1.49 and 1.73 and 2.08 and 1.88 and 2.79 and 0.89 and 1.63 and 0.8 and 1.21 and 0.66 and 1.02 and 0.93
- CREZ ([2]; HFD female, individual animals): 8.81 and 10.944 and 9.86 and 9.877 and 9.32 and 9.613 and 6.396
- Fe ([2]; HFD female, individual animals): 19.66 and 16.34 and 16.57 and 13.12 and 20.06 and 22.23 and 20.85
- LDH ([2]; HFD female, individual animals): 105.53 and 141.23 and 148.87 and 187.77 and 168.5 and 171.83 and 139.86 and 141.62 and 132.6 and 117.06 and 243.58 and 169.43 and 199.88 and 175.99 and 186.41 and 240.46 and 159.98
- Urea ([2]; HFD female, individual animals): 6.32 and 7.96 and 9.13 and 6.71 and 5.59 and 7.45 and 7.35 and 5.3
- body weight or food intake ([2]; HFD, 5 mg/kg 3× per week p.o., one month): no significant effect
- liver weight (LW) and liver-to-body weight (LW/BW) ([2]; HFD, after 1-month application): increase
- ALB [2, 4]: 30.28 and 28.44 and 27.19 and 26.19 and 27.85 and 26.86 and 29.5 and 28.87 and 29.11 and 28.18 and 27.81 and 29.6 and 31.94 and 31.6 and 25.37 and 30.94
- ALP [2, 4]: 46 and 65 and 58 and 53 and 57 and 59 and 87 and 78 and 134 and 85 and 147 and 42 and 80 and 203 and 48 and 62 and 47
- ALT [2, 4]: 111 and 104 and 91 and 82 and 86 and 81 and 194 and 185 and 231 and 101 and 144 and 333 and 40 and 171 and 279 and 78 and 136 and 35
- AST [2, 4]: 61 and 103 and 71 and 75 and 84 and 65 and 111 and 106 and 115 and 97 and 60 and 215 and 57 and 86 and 96 and 62
- Bilirubin [2, 4]: 6.24 and 2.33 and 2.77 and 2.03 and 2.43 and 2.14 and 2.07 and 1.65 and 0.69 and 0.83 and 0.78 and 2.19 and 1.62 and 2.1 and 2.2 and 2.29 and 2.82 and 3.89
- CREZ [2, 4]: 6.64 and 6.515 and 6.651 and 6.864 and 6.4 and 11.788 and 9.016 and 8.705 and 10.01 and 10.479 and 10.075 and 9.458 and 9.179 and 10.214 and 7.193 and 7.711
- Fe [2, 4]: 25.96 and 27.35 and 19.07 and 29.46 and 21.87 and 40.46 and 33.38 and 35.58 and 29.04 and 23.68 and 27.39 and 20.96 and 37.12 and 36.65 and 34.04 and 37.51 and 32.98 and 21.67 and 30.02 and 31.93
- LDH [2, 4]: 198.22 and 263.31 and 253.93 and 193.25 and 209.81 and 272.82 and 399.88 and 396.59 and 572.08 and 407.53 and 224.02 and 465.2 and 571.59 and 132.99 and 401.74 and 1012.86 and 180.55 and 261.31 and 251.38 and 204.74
- Urea [2, 4]: 8.86 and 6.88 and 6.46 and 8.34 and 10.25 and 5.64 and 6.34 and 6.16 and 6.83 and 6.9 and 7.15 and 6.75 and 6.76 and 5.98 and 5.4
- Uric acid [2, 4]: 34.39 and 75.29 and 81.6 and 51.23 and 51.93 and 56.87 and 65.17 and 44.52 and 78.74 and 74.95 and 74.71 and 112.08 and 32.89 and 40.5 and 30.33 and 46.79 and 41.52 and 45.58 and 40.84
- food intake (Fig 4c) ([2]; MI-883 vs vehicle line): 2.1 and 3.3 and 2.8 and 2.6 and 2.7
- triglycerides and glucose concentrations in males ([2]; both studies): did not see any significant effects
- signs of hepatotoxicity or nephrotoxicity based on biochemical parameters ([2]; both studies (HFD, HCD)): did not observe
- other plasma biochemical parameters ([2]; both studies, Supplementary Fig. 11): did not impact
- Chol (Fig. 4e) [2, 5]: 4.25 and 4.28 and 2.95 and 3.55 and 3.29 and 4.43 and 4.16 and 4.71 and 4.02 and 3.77 and 3.86 and 4.66 and 3.96 and 4.68 and 3.68
- Glu (Fig. 4e) [2, 5]: 10.58 and 14.95 and 11.18 and 14.52 and 13.99 and 12.86 and 13.45 and 16.77 and 19.28 and 18.71 and 17.05 and 15.9 and 14.58 and 9.64 and 14.8 and 12.42
- HDL (Fig. 4e) [2, 5]: 3.307 and 3.291 and 2.143 and 2.747 and 3.405 and 3.464 and 3.127 and 2.59 and 3.382 and 3.348 and 3.749 and 3.32 and 3.251 and 2.944 and 3.197 and 2.432 and 3.457 and 2.752
- LDL (Fig. 4e) [2, 5]: 0.69 and 0.66 and 0.46 and 0.49 and 0.67 and 0.52 and 0.82 and 0.7 and 1.08 and 0.75 and 0.63 and 0.85 and 1.01 and 0.81
- TG (Fig. 4e) [2, 5]: 3.307 and 3.291 and 2.143 and 2.747 and 3.405 and 3.464 and 3.127 and 2.59 and 3.382 and 3.348 and 3.749 and 3.32 and 3.251 and 2.944 and 3.197 and 2.432 and 3.457 and 2.752
- BW (Fig 4b) [2, 6]: 36.3 and 38.1 and 36.8 and 38.8 and 38 and 34.3 and 36.4 and 31 and 45.2 and 42 and 35.4 and 38.9 and 39.5 and 42.8 and 39.3 and 39.9 and 40 and 37 and 42.6 and 40.9 and 39.2 and 38.5
- LW (Fig 4b) [2, 6]: 2.77 and 2.32 and 1.65 and 2.28 and 2.58 and 2.48 and 2.14 and 2.06 and 1.7 and 3.5 and 3.3 and 1.85 and 3.4 and 3.1 and 4.26 and 3.42 and 3.33 and 3.06 and 2.35 and 3.38 and 2.25 and 3.12 and 1.56
- diarrhea ([2]; mouse, in vivo): did not observe any diarrhea
- Chol (Fig. 4e) [2, 7]: 1.85 and 1.75
- Glu (Fig. 4e) [2, 7]: 12.37 and 16.62
- HDL (Fig. 4e) [2, 7]: 1.205 and 1.168
- LDL (Fig. 4e) [2, 7]: 0.45 and 0.42
- TG (Fig. 4e) [2, 7]: 1.205 and 1.168
